Reference: patent publication US12344623B2, “Thiazolopyridine derivatives as adenosine receptor antagonists” (Merck Patent GmbH, priority 2019, dated 2025)
Where two headings read alike, the source gives them in different places.

Assays:
Format in all cases: cell-based
human A2A receptor [1] = molecular target: T1, human A2A receptor (Homo sapiens, UniProt P29274); assay: Human T cells, endogenous A2A receptor, cAMP, agonist NECA; settings: read-out: hTcell data, cAMP, IC50
Procedure: The endogenous functional activity of the Gs-coupled human A2A receptor was measured in T cells, where this receptor is highly expressed. Determination of receptor activity was done by quantification of cAMP, which is a second messenger for adenosine receptors.
In short, human pan T cells were isolated from human PBMC (MACS Pan T Cell Isolation Kit, Miltenyi Biotec) that have been derived from fresh whole blood. The T cells were seeded in 384-well microtiter plates and treated with test compounds. […] Finally, HTRF reagents (cAMP Femto Kit, CisBio) were added to the wells, and after 1 h cellular cAMP levels were determined using the ENVISION (Perkin Elmer) plate reader.
The obtained raw data were normalized against the inhibitor control and the neutral control (DMSO) and the normalized data were fitted using Genedata Screener software.

human A2B receptor = molecular target: T2, human A2B receptor (Homo sapiens, UniProt P29275); assay: Functional A2B receptor activity, recombinant HEK293 cells, cAMP (HTRF), agonist NECA
T2 construct: expressed in transfected cells; host or cells: HEK293
T2 sequence (P29275 1-332): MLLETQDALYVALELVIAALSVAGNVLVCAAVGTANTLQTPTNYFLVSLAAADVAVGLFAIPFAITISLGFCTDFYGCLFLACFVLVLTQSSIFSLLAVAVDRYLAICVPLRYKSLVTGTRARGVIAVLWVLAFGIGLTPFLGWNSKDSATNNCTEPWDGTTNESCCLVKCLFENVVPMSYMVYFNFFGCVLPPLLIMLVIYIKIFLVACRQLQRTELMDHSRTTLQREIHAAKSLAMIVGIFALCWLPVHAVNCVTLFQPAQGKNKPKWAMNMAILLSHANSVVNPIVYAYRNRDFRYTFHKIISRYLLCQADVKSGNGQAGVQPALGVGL
Procedure, shortened: (§1)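 Cells were seeded, then treated with forskolin, test compound and agonist. After a 30 min incubation, HTRF detection reagents were added and intracellular cAMP was read. Values were scaled between an inhibitor control and DMSO before fitting.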

human A1 receptor = molecular target: T3, human A1 receptor (Homo sapiens, UniProt P30542); assay: Functional A1 receptor activity, recombinant CHO cells, cAMP (HTRF), forskolin, agonist CPA
T3 construct: expressed in transfected cells; host or cells: CHO
T3 sequence (P30542 1-326): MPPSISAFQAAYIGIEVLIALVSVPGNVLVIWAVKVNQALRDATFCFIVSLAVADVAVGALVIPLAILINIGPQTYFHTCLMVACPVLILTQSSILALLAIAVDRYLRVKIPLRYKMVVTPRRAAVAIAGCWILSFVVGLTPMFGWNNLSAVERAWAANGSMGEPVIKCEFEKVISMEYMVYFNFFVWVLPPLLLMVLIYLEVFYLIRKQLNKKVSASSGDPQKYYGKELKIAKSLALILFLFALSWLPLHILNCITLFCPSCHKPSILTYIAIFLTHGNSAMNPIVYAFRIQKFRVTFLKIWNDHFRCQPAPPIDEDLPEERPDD
Procedure, shortened: (§2)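 Recombinant CHO lines carrying either receptor receive forskolin, compound and the matching agonist, CPA or IB-MECA. After 30 min, HTRF reagents are added and cAMP is quantified. Values are normalized to inhibitor and neutral DMSO controls, then fitted.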

human A3 receptor = molecular target: T4, human A3 receptor (Homo sapiens, UniProt P0DMS8); assay: Functional A3 receptor activity, recombinant CHO cells, cAMP (HTRF), forskolin, agonist IB-MECA
T4 construct: expressed in transfected cells; host or cells: CHO
T4 sequence (P0DMS8 1-318): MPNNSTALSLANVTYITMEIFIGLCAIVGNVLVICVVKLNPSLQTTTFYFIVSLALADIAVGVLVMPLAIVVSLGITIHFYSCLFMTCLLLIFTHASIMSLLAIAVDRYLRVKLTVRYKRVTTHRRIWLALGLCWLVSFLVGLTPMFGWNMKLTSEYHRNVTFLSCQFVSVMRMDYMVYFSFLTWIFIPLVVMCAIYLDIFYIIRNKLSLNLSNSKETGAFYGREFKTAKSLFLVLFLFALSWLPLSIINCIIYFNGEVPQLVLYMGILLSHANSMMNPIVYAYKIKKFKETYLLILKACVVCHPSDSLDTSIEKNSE
Procedure, shortened: as §2

human A2A receptor [2] = molecular target: T1, human A2A receptor; assay: Functional A2A receptor activity, recombinant HEK293 cells, cAMP (HTRF), agonist NECA; design: expressed in transfected cells; host or cells: HEK293
Procedure, shortened: as §1

[3] = read-out: Functional A2B receptor activity, HEK293, cAMP, IC50
[4] = recombinant CHO cells, forskolin, agonist CPA, read-out: Functional A1 receptor activity, CHO, cAMP, IC50
[5] = recombinant CHO cells, forskolin, agonist IB-MECA, read-out: Functional A3 receptor activity, CHO, cAMP, IC50
[6] = read-out: Functional A2A receptor activity, HEK293, cAMP, IC50
[7] = recombinant CHO cells, forskolin, agonist CPA, cAMP, read-out: Functional A1 receptor activity, CHO, cAMP, IC50
[8] = recombinant CHO cells, forskolin, agonist IB-MECA, cAMP, read-out: Functional A3 receptor activity, CHO, cAMP, IC50

T1 sequence (P29274 whole entry): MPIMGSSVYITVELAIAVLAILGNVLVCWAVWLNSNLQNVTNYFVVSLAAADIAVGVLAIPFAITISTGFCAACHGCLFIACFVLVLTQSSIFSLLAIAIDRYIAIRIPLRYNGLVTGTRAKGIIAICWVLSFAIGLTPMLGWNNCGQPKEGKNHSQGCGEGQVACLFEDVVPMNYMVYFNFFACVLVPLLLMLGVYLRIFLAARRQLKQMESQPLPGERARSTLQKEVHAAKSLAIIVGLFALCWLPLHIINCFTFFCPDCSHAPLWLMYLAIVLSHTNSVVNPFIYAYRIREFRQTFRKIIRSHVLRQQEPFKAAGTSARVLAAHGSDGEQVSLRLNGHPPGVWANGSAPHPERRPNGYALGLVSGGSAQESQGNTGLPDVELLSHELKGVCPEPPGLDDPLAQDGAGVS

Row | Structure (SMILES) | IC50 (human A2A receptor [1]) [nM] | IC50 (human A2B receptor; [3]) [nM] | IC50 (human A3 receptor; [5]) [nM] | IC50 (human A2A receptor [2]; [6]) [nM] | other results
1 | COc1cnc(N2CCOCC2)c2sc(NC(=O)N3CCC(O)CC3)nc12 | < 1000 | – | – | – | –
2 | COc1nc(F)c(C2CCOCC2)c2sc(NC(=O)N3CC[C@@]4(CCOC4)C3)nc12 [Compound 37, (R)-2-Oxa-7-aza-spiro[4.4]nonane-7-carboxylic acid [6-fluoro-4-methoxy-7-(tetrahydro-pyran-4-yl)-thiazolo[4,5-c]pyridin-2-yl]-amide] | < 10 | < 100 | > 1000 | < 10 | IC50 (human A1 receptor; [4]): > 1000 nM
3 | COc1ncc(C2=CCCCC2)c2sc(NC(=O)N3CCC4(CCOCC4)C3)nc12 [Compound 59, 8-Oxa-2-aza-spiro[4.5]decane-2-carboxylic acid (7-cyclohex-1-enyl-4-methoxy-thiazolo[4,5-c]pyridin-2-yl)-amide] | < 10 | < 100 | > 1000 | < 10 | IC50 (human A1 receptor; [4]): < 1000 nM
4 | COc1ncc(C2=CCC(F)(F)CC2)c2sc(NC(=O)N3CCC4(CCOCC4)C3)nc12 [Compound 63, 8-Oxa-2-aza-spiro[4.5]decane-2-carboxylic acid [7-(4,4-difluoro-cyclohex-1-enyl)-4-methoxy-thiazolo[4,5-c]pyridin-2-yl]-amide] | < 10 | < 100 | > 1000 | < 10 | IC50 (human A1 receptor; [4]): < 1000 nM
5 | COc1ncc(C2=CCOCC2)c2sc(NC(=O)c3c[nH]cn3)nc12 [Compound 65, 1H-Imidazole-4-carboxylic acid [7-(3,6-dihydro-2H-pyran-4-yl)-4-methoxy-thiazolo[4,5-c]pyridin-2-yl]-amide] | < 10 | < 10 | > 1000 | < 10 | IC50 (human A1 receptor; [4]): < 100 nM
6 | COc1ncc(-c2cnn(Cc3cccnc3)c2)c2sc(NC(=O)N3CCC4(CCOCC4)C3)nc12 [Compound 68, 8-Oxa-2-aza-spiro[4.5]decane-2-carboxylic acid [4-methoxy-7-(1-pyridin-3-ylmethyl-1H-pyrazol-4-yl)-thiazolo[4,5-c]pyridin-2-yl]-amide] | < 10 | < 10 | > 1000 | < 10 | –
7 | COc1ncc(-c2cnn(Cc3ccccn3)c2)c2sc(NC(=O)N3CCC4(CCOCC4)C3)nc12 [Compound 69, 8-Oxa-2-aza-spiro[4.5]decane-2-carboxylic acid [4-methoxy-7-(1-pyridin-2-ylmethyl-1H-pyrazol-4-yl)-thiazolo[4,5-c]pyridin-2-yl]-amide] | < 10 | < 10 | < 1000 | < 10 | IC50 (human A1 receptor; [4]): < 100 nM
8 | COc1ncc(C2=CCOCC2)c2sc(NC(=O)c3ccc(-n4ccnn4)cc3)nc12 [Compound 71, N-[7-(3,6-dihydro-2H-pyran-4-yl)-4-methoxy-[1,3]thiazolo[4,5-c]pyridin-2-yl]-4-(1H-1,2,3-triazol-1-yl)benzamide] | < 10 | < 10 | > 1000 | < 10 | IC50 (human A1 receptor; [4]): < 1000 nM
9 | COc1ncc(C2=CCOCC2)c2sc(NC(=O)c3ccc(C(=O)O)cc3)nc12 [Compound 72, 4-{[7-(3,6-dihydro-2H-pyran-4-yl)-4-methoxy-[1,3]thiazolo[4,5-c]pyridin-2-yl]carbamoyl}benzoic acid] | < 100 | < 10 | > 1000 | < 10 | IC50 (human A1 receptor; [4]): < 1000 nM
10 | COc1ncc(-c2cnn(CC(F)F)c2)c2sc(NC(=O)N3CCC4(CCOCC4)C3)nc12 [Compound 74, 8-Oxa-2-aza-spiro[4.5]decane-2-carboxylic acid {7-[1-(2,2-difluoro-ethyl)-1H-pyrazol-4-yl]-4-methoxy-thiazolo[4,5-c]pyridin-2-yl}-amide] | < 100 | < 100 | > 1000 | < 10 | IC50 (human A1 receptor; [4]): < 1000 nM
11 | COc1ncc(C2=CCOCC2)c2sc(NC(=O)c3c[nH]c(-c4ccncc4)n3)nc12 [Compound 165, 2-Pyridin-4-yl-1H-imidazole-4-carboxylic acid [7-(3,6-dihydro-2H-pyran-4-yl)-4-methoxy-thiazolo[4,5-c]pyridin-2-yl]-amide] | < 10 | < 10 | > 1000 | < 10 | –
12 | COc1ncc(C2=CCOCC2)c2sc(NC(=O)c3cnc(C(=O)O)[nH]3)nc12 [Compound 168, 5-[7-(3,6-Dihydro-2H-pyran-4-yl)-4-methoxy-thiazolo[4,5-c]pyridin-2-ylcarbamoyl]-1H-imidazole-2-carboxylic acid] | < 100 | < 100 | > 1000 | < 10 | –
13 | COc1cnc(N2CCOCC2)c2sc(NC(=O)N3CCCCC3)nc12 [drawing 192, reference compound] | – | < 1000 | – | < 10 | IC50 (human A1 receptor; [7]): > 1000 nM; IC50 (human A3 receptor; [8]): < 100 nM
14 | COc1cnc(N2CCOCC2)c2sc(NC(=O)N3CCOCC3)nc12 [drawing 193, reference compound] | – | < 1000 | – | < 10 | IC50 (human A1 receptor; [7]): > 1000 nM; IC50 (human A3 receptor; [8]): < 1000 nM
15 | COc1cnc(N2CCOCC2)c2sc(NC(=O)N3CCC4(CCN(C)C4=O)CC3)nc12 [drawing 215] | < 1000 | – | – | – | –
16 | COc1ccc(-c2ccccc2)c2sc(NC(=O)NCCN3CCCCC3)nc12 [drawing 216] | < 1000 | – | – | – | –
17 | COc1cnc(N2CCOCC2)c2sc(NC(=O)N3CCC(CO)CC3)nc12 [drawing 217] | < 1000 | – | – | – | –
18 | COc1cnc(N2CCOCC2)c2sc(NC(=O)N3CCC4(CCCO4)CC3)nc12 [drawing 218] | < 1000 | – | – | – | –
19 | COc1ccc(N2CCOCC2)c2sc(NC(=O)N3CCC4(CCCO4)CC3)nc12 [drawing 219] | < 1000 | – | – | – | –
20 | COc1ccc(N2CCOCC2)c2sc(NC(=O)N3CCCCC3)nc12 [drawing 221] | < 1000 | – | – | – | –
21 | COc1cnc(N2CCOCC2)c2sc(NC(=O)N3CCCCC3)nc12 [drawing 222] | < 1000 | – | – | – | –
22 | COc1cnc(N2CCOCC2)c2sc(NC(=O)N3CCOCC3)nc12 [drawing 223] | < 1000 | – | – | – | –
23 | COc1ccc(C2CCOCC2)c2sc(NC(=O)N3CCC4(CC3)OCCO4)nc12 [reference compound] | – | – | – | – | IC50 (human A2B receptor): < 1000 nM; IC50 (human A1 receptor): > 1000 nM; IC50 (human A3 receptor): > 1000 nM; IC50 (human A2A receptor [2]): < 10 nM
24 | COc1ccc(C2CCOCC2)c2sc(NC(=O)N3CCOCC3)nc12 [reference compound] | – | < 1000 | – | < 10 | IC50 (human A1 receptor; [7]): < 1000 nM; IC50 (human A3 receptor; [8]): > 1000 nM
25 | COc1ccc(N2CCOCC2)c2sc(NC(=O)N3CCOCC3)nc12 [reference compound] | – | < 1000 | – | < 10 | IC50 (human A1 receptor; [7]): > 1000 nM; IC50 (human A3 receptor; [8]): > 1000 nM
26 | COc1ccc(-c2cnn(C)c2)c2sc(NC(=O)N3CCC(C)(O)CC3)nc12 [reference compound] | – | < 1000 | – | < 10 | IC50 (human A1 receptor; [7]): < 1000 nM; IC50 (human A3 receptor; [8]): < 1000 nM
27 | COc1ccc(-c2cnn(C)c2)c2sc(NC(=O)c3ccnc(N4CCOCC4)c3)nc12 [reference compound] | – | < 1000 | – | < 10 | IC50 (human A1 receptor; [7]): < 1000 nM; IC50 (human A3 receptor; [8]): < 1000 nM
